Consider one compound from patent US12139458B2, “(2,5-dioxopyrrolidin-1-yl)(phenyl)-acetamide derivatives and their use in the treatment of neurological diseases” (UNIWERSYTET JAGIELLONSKI, priority 2019, dated 2024).

The inhibition is how much of the control response was suppressed.

In one data set the test system is HepG2 cells. The data set can be described thus: In vitro hepatotoxicity, MTS cell viability assay. It is filed as cell-based. The conditions noted are these: 100 μM, 72 h incubation, p<0.05. Here is the method:
In vitro hepatotoxicity assessment. The studies were conducted using the hepatoma HepG2 liver cancer cell line, which is used to assess the hepatotoxicity of the substance in vitro. A classic MTS colorimetric assay from Promega (Madison, WI, USA) was used to investigate the effect of 6 on HepG2 cell viability and proliferation. The compound was tested at four concentrations in the range (0.1-100 μM). Doxorubicin at a concentration of 1 μM was used as a reference cytostatic. In addition, the reference mitochondrial toxin carbonyl cyanide m-chlorophenylhydrazone (CCCP) at a concentration of 10 μM was also used (FIG. 10). […] In addition, cell viability was reduced to just 84% of the control, indicating a trace toxic effect of this compound on HepG2 cell lines. Due to the particular exposure of liver cells to the potential toxic effects of xenobiotics, an additional test was carried out with the HepG2 line in the form of luminescent measurement of ATP levels in cells, after a short 3-hour exposure to compound 6, in concentrations in the range of 1-100 μM. […]
In vitro hepatotoxicity assessment—methodology. […] Plates were again incubated for 2-3 hours, followed by absorbance measurement at 490 nm with an EnSpire PerkinElmer (Waltham, MA, USA) reader. Statistical significance was calculated by one-way ANOVA variance analysis and the Bonferroni method. […]

A further data set has as its target TRPV1 receptor (VR1) (h) (Homo sapiens, UniProt Q8NER1). The data set can be described thus: TRPV1 receptor functional study (antagonist effect). It is filed as cell-based. The conditions noted are these: human recombinant cells (CHO), read-out: % Inhibition of agonist control responses, TRPV1 receptor (antagonist effect). The text has this:
A unique feature of the compound 6 representing compounds of formula (II) according to the invention is the inhibition of calcium currents by blocking the transient receptor potential vanilloid type 1 (TRPV1). This effect has not been disclosed for known AEDs. TRPV1 receptor antagonism may determine the antinociceptive effect of the compounds disclosed herein. The role of the TRPV1 receptor in conduction of pain stimuli has been well documented in specialist literature (Szallasi, A.; Cortright, D. N.; Blum, C. A.; Eid, S. R. Nat. Rev. Drug. Discov. 2007, 6, 357-372). The compounds according to the invention are characterized by a complex mechanism of action, which is not described for known anticonvulsants. It should be emphasized, however, that further in vitro studies may reveal further molecular targets responsible for the pharmacological action of substances being the subject of current patent claim. The results of binding studies (sodium channel, calcium channel) and functional tests (TRPV1 receptor) for compound 6 are shown in Table 3.

In data set [1] the test system is male white Swiss mice (CD-1). Put plainly: Oxaliplatin-induced neuropathic pain, von Frey test. It is filed as in vivo. The conditions noted are these: for pain threshold, von Frey test: 7 days after OXPT, after OXPT 1.89±0.04 g; for pain threshold as % of the initial value, von Frey test: initial value 3.36±0.10 g. Here is the method:
The tests were carried out using male white Swiss mice (CD-1) weighing 18-25 g. All procedures were carried out in accordance with Polish and international guidelines on ethics of animal testing, after obtaining appropriate institutional approval. The study group consisted of 8-10 animals. The tested and reference substances were administered intraperitoneally 30 minutes before given test as suspension in 1% aqueous solution of Tween. All tests/models were carried out based on the procedures described in the specialist literature: the formalin test (Beirith, A.; Santos, A. R.; Calixto, J. B.; Rodrigues, A. L.; Creczynski-Pasa, T. B. Eur. J. Pharmacol. 1998, 345, 233-245), the model of capsaicin-induced pain (Mogilski, S.; Kubacka, M.; Redzicka, A.; Kazek, G.; Dudek, M.; Malinka, W.; Filipek, B. Pharmacol. Biochem. Behav. 2015, 133, 99-110), the model of oxaliplatin-induced neuropathic pain—von Frey test (Sałat, K.; Cios, A.; Wyska, E.; Satat, R.; Mogilski, S.; Filipek, B.; Wigȩkowski, K.; Malawska, B. Pharmacol. Biochem. Behav. 2014, 122, 173-181).
Oxaliplatin (OXPT) was dissolved in a 5% glucose solution, followed by intraperitoneal administration to mice. A single dose of 10 mg/kg was used. Tactile and thermal (sensation of low temperature) allodynia associated with oxaliplatin-induced neuropathy are characterized by two phases. The early phase is acute and develops soon after administration of the OXPT, while the symptoms of the later (chronic) phase (associated with neurons damage), develops after a few days. Behavioral tests in mice with OXPT-induced neuropathy were carried out 7 days after its administration, i.e. in the late phase of neuropathy.
The influence of compounds tested on tactile allodynia was determined in the von Frey test. The animals were placed individually in cages with a reticulated bottom, 60 minutes before the beginning of the experiment, in order to adapt to the new environment. An electronic Von Frey apparatus (Electronic Von Frey, Bioseb, France) was used to assess the pain threshold for mechanical stimuli. The von Frey's fiber was applied to the underside of the right mouse paw with increasing pressure. […] The measurement was performed 3 times for each mouse, with at least 30 seconds between the measurements, then the results obtained were averaged. The entire study was performed 3 times: before OXPT administration to determine the baseline pain threshold; 7 days after administration of OXPT, and before administration of test compounds, to assess developing neuropathy by setting a new pain threshold; 30 minutes after administration of the compounds to determine their influence developed neuropathy.
Compound 6 was administered at doses of 10, 20 and 30 mg/kg.

TRPV1 receptor (VR1) (h), sequence (Q8NER1 whole entry): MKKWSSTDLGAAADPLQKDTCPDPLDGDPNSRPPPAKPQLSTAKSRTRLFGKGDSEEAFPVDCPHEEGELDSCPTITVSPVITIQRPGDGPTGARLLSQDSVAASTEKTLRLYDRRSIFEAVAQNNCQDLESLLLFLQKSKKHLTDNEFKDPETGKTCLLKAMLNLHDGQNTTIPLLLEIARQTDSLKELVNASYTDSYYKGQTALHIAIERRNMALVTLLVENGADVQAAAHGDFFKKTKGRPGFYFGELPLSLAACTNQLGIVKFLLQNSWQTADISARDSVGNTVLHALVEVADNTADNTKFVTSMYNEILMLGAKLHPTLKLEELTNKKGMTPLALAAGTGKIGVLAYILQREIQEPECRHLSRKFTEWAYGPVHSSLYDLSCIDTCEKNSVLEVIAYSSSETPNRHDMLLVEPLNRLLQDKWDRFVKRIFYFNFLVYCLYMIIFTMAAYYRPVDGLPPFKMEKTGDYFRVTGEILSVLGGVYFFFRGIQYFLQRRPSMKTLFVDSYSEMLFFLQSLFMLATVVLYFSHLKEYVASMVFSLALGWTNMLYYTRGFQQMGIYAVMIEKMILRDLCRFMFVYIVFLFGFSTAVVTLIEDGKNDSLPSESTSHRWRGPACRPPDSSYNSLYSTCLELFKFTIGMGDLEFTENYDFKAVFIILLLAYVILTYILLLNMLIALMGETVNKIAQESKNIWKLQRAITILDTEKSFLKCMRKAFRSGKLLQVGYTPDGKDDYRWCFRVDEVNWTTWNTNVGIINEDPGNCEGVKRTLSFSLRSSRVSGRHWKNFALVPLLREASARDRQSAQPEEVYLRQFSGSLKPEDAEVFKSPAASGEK

Regarding `O=C(C(c1ccccc1)N1C(=O)CCC1=O)N1CCN(c2cccc(C(F)(F)F)c2)CC1` (racemic) [Compound 6, 1-(2-Oxo-1-phenyl-2-(4-(3-(trifluoromethyl)phenyl)piperazin-1-yl)ethyl)pyrrolidine-2,5-dione], the “HepG2 cell viability, % of the control” value in the data set on HepG2 cells stood at 84%. The inhibition at 100 µM on TRPV1 receptor (VR1) (h) was 71.7%. The results for the “pain threshold, von Frey test” value in data set [1] (10 mg/kg i.p.), in data set [1] (20 mg/kg i.p.) and in data set [1] (30 mg/kg i.p.) were 2.87 ± 0.12 g, 3.83 ± 0.13 g and 4.17 ± 0.17 g, respectively. Besides, the “pain threshold as % of the initial value, von Frey test” value is recorded as 85.41% in data set [1] (10 mg/kg i.p.), 113.98% in data set [1] (20 mg/kg i.p.) and 124.10% in data set [1] (30 mg/kg i.p.).
